Data reported in patent US20210038577A1, “THIOREDOXIN REDUCTASE INHIBITORS FOR USE IN THE TREATMENT OF CANCER” (Cinda Pharma AB, priority 2018, published 2021).

Legend:
Trx in MDA-MB-231 cells = test: Intracellular Trx levels by ELISA in MDA-MB-231 tumor cells; assay type: cell-based, human; conditions: for intracellular Trx during treatment: 0.1 μM, 1 μM and 10 μM, over 96 hours; for total intracellular Trx at end of experiment versus untreated cell cultures: end of experiment (96 hours)
Method: The human mammary carcinoma cell line MDA-MB-231 was obtained from the American Type Culture Collection (ATCC; Manassas, Va.) and cultured in Leibovitz's L-15 medium (Thermo Fisher Scientific, USA) supplemented with 10% (v/v) heat-inactivated fetal bovine serum (Thermo Fisher Scientific, USA), 10 mM HERBS (Sigma), 25 mM sodium bicarbonate (Sigma), 1× Glutamax (Sigma), 100 IU/mL penicillin and 100 μg/ml streptomycin (Sigma) in a 5% CO2 atmosphere at 37° C. Briefly, cells were seeded at 7500 cells/well in 96-well plates. After 24 h, the cells were treated either with different concentrations of test compounds or DMSO (0.5%; vehicle control) respectively and further incubated at 37° C. in a CO2 incubator. Culture supernatants were collected at different time points, like, immediately after cell plating (−24 h), 0 h (at the time of compound addition), and 1 h, 6 h, 12 h, 24 h, 48 h, 72 h and 96 h following compound addition. Subsequently, cells were lysed from corresponding wells with 0.1% Triton X-100 and the lysates were collected. Trx levels were measured in both the culture supernatants and cell lysates by ELISA using TXN (Human) ELISA Kit [Abnova; Cat no: KA0535] following manufacturer instruction. A standard curve was prepared using different concentrations of the Trx standard (provided in the kit) with the help of GraphPad Prism software (version 5.0; La Jolla, Calif., USA). Trx concentrations for the unknown samples were calculated from the standard curve. The data were expressed as the means of three replicates.

[1] = tested on: NB-4 (a leukaemia cell line); test: MTT cell viability assay, NB-4; assay type: cell-based; conditions: 72 hrs
Method: (§1) MDA-MB-453 (ATCC HTB-131) cells were grown in media with sodium pyruvate. MDA-MB-231 cells (ATCC HTB-26) were grown in DMEM media or L-15 supplemented with Glutamax (1×). U87-MG (ATCC HTB-14) and MDA-MB-468 (ATCC HTB-132) cells were cultured in DMEM supplemented with Glutamax (1×). NB-4 (DSMZ ACC-207) cells were cultured in RPMI 1640.
(§2) Breast cancer and glioblastoma cell lines were plated 4000 cells/well in 96-well plates in the presence of 10% FBS media. The following day cells were treated with various concentrations of the example compounds (0.1% DMSO final) and incubated for 72 hrs. After the incubation an MTT assay was performed to access cell viability. Percent of viability was determined using DMSO vehicle and no cell (blank) controls.

MDA-MB-231 xenografts = test: MDA-MB-231 xenograft tumor growth in immunodeficient athymic nude mice; assay type: in vivo; conditions: for TGI: 12 doses; for final tumor volumes versus vehicle (waterfall plot): end of experiment (22 days OT-1000, 25 days OT-1129)
Method: Athymic nude mice were inoculated orthotopically with 5×10^6 MDA-MB-231 breast cancer cells into the mammary fat pad, and randomized for treatment when tumors reached an average volume of 80-120 mm^3 (N=12 in each group). […] Xenograft tumor volume was assessed using caliper measurements for 22 days. Athymic nude mouse model is described by Richmond A, and Su Y., Disease Models & Mechanisms. 2008; 1(2-3):78-82.
Athymic nude mice were inoculated orthotopically with 5×10^6 MDA-MB-231 breast cancer cells into the mammary fat pad, and randomized for treatment when tumors reached an average volume of 80-120 mm^3 (N=12 in each group). […] Xenograft tumor volume was assessed using caliper measurements for 25 days. MDA-MB-231 Xenograft Tumor Growth in Immunodeficient Athymic Nude Mice Treated with OT-1096 or Vehicle Control. Athymic nude mice were inoculated orthotopically with 5×10^6 MDA-MB-231 breast cancer cells into the mammary fat pad and randomized for treatment when tumors reached an average volume of 80-120 mm^3 (N=12 in each group). Mice were treated with 10 mg/kg OT-1096 via i.v. injection or with vehicle i.v., once a day using a 5 day on two day off (5/2) dosing regimen for the duration of the experiment. Xenograft tumor volume was assessed using caliper measurements for 25 days. Data is represented as mean tumor volume±SEM. Statistical significance (p<0.05) was determined using a Two-way repeated measures ANOVA with Sidak's multiple comparison test. […] Relative Luminescence Flux in Primary 4T1-Luc2 Immunocompetent Tumors Implanted into the Mammary Fat Pad of BALB/C Mice and Treated with OT-1096 or Vehicle Control. Female BALB/c immunocompetent mice were implanted with 1×10^5 4T1-luc2 murine tumor cells into the mammary fat pad. Upon growth of the tumors between 60-90 mm^3 the animals were selected for imaging. Mice were randomized and enrolled for treatment based on imaging flux values. Mice were treated once daily with 5 mg/kg of either OT-1096 or vehicle control using a 5/2 (five days on, two days off) dosing protocol. Upon days 1, 8, and 15 whole body imaging was performed on the mice to follow tumor cell luminescence. Analysis consists of primary tumor luminescence in mice. Each mouse was normalized to its own baseline luminescence from day 1. […] Data is represented as mean±SEM. Statistical significance (p<0.05) was determined using a Mann-Whitney test. The relative luminescence flux for mice treated with OT-1096 was significant compared to vehicle at day 15. Primary Tumor Growth of TM00098 Patient Derived Xenografts-Triple Negative Breast Cancer in Immunocompetent Humanized NSG Mice (Hu-CD34-NSG) Treated with OT-1096 or Vehicle Control. Female NSG mice were implanted with human CD34+ hematopoietic stem cells from multiple donors and the level of human CD45+ cells were measured in the peripheral blood 12 weeks post engraftment. Mice with >25% human CD45+ cells in the peripheral blood were determined to have a humanized immune system (Hu-CD34-NSG™) mice and were enrolled into the study. The Hu-CD34-NSG mice were implanted with TM00098 patient-derived xenografts (PDX) subcutaneously on the right flank. The TM00098 PDX cancer cells originate from a primary tumor of a patient suffering from a grade 3 TNBC invasive ductal carcinoma. When the tumors reached a volume between 60-120 mm^3 mice were treated with either 10 mg/kg OT-1096 three times a week intravenously (donor 5243 n=5, donor 5252 n=7) or with a vehicle three times a week intravenously (donor 5243 n=3, donor 5252 n=2). In case of tail vein swelling when the test substance or vehicle could not be administered intravenously, Intraperitoneal injection was applied. Tumor volume was measured using a digital caliper two times a week for the duration of the study. Animals that reached a body condition score of ≤2, a body weight loss of ≥20% or a tumor volume >2000 mm^3 were euthanized before study terminus. Animals with ulcerated tumors were also euthanized before study terminus. […]

[2] = tested on: MDA-MB-231 (a breast cancer cell line); test: MTT cell viability assay, MDA-MB-231; assay type: cell-based, human
Method: as §1, §2

Row | Compound | intracellular Trx during treatment (Trx in MDA-MB-231 cells) | total intracellular Trx at end of experiment versus untreated cell cultures (Trx in MDA-MB-231 cells) | IC50 [1] [µM] | TGI (MDA-MB-231 xenografts; 25 mg/kg intravenously, 25 days) [%] | final tumor volumes versus vehicle (waterfall plot) (MDA-MB-231 xenografts) | IC50 ([2]; 72 hrs) [µM] | intracellular levels of Trx compared with control cells (Trx in MDA-MB-231 cells; at 10 μM) | time after which intracellular Trx is reduced compared with control cells (Trx in MDA-MB-231 cells; at 10 μM) [h] | % TGI (MDA-MB-231 xenografts; 10 mg/kg IV, 5 day on two day off (5/2), 25 days) [%] | mean tumor volume compared to vehicle (MDA-MB-231 xenografts; 10 mg/kg i.v. 5/2, day 25, p<0.05) | tumor growth inhibition rate (TGI) (MDA-MB-231 xenografts; 10 mg/kg IV, 11 times over 22 days) [%] | IC50 ([2]; Homo sapiens, MDA-MB-231, 72 h) [µM] | intracellular Trx levels in comparison to untreated cells (Trx in MDA-MB-231 cells; e.g. at the 96 h time point) | TGI (MDA-MB-231 xenografts; 25 mg/kg intraperitoneally, 25 days) [%]
1 | CCS(=O)(=O)c1nc(OC)ccc1[N+](=O)[O-] [OT-1129, 2-(ethylsulfonyl)-6-methoxy-3-nitropyridine] | appears to decline | lower | 1.12 | 25 | more frequently of lower size than vehicle-treated tumors | 4.88 |  |  |  |  |  |  |  | 
2 | CCCCCCCCS(=O)(=O)c1nc(OC)ccc1[N+](=O)[O-] [OT-1096, 6-methoxy-3-nitro-2-(octylsulfonyl)pyridine] |  |  | 3.22 |  |  |  | reduced | 24 | 19 | statistically significant |  |  |  | 
3 | COc1ccc([N+](=O)[O-])c(S(=O)(=O)c2ccc(Cl)cc2)n1 [OT-1000, 2-((4-Chlorophenyl)sulfonyl)-6-methoxy-3-nitropyridine] | appears to decline | lower | 1.2 |  | more frequently of lower size than vehicle-treated tumors |  |  |  |  |  | 37 | 3.14 |  | 
4 | NC(=O)c1ccc(I)c([N+](=O)[O-])c1 [Iniparib, 4-Iodo-3-nitrobenzamide, reference compound] |  |  | 57.6 |  |  |  |  |  |  |  |  | > 33 | reduced | 9
